Type in all cases: cell-based
Assay [1] relates to S. uberis ATCC 19436. The assay is described as follows: MIC by broth microdilution, S. uberis. The note with it: Streptococcus uberis. As to the method: (§1) Antibacterial susceptibility testing was performed in triplicate (biological) by measuring minimum inhibitory concentrations (MICs) by broth microdilution in 96-well flat bottom microtiter plates (ThermoFisher Scientific, New Zealand). S. uberis ATCC 19436, S. aureus ATCC 6538, or E. coli ATCC 10596 cells grown overnight were diluted to an OD600 of approximately 0.025, so that the final concentration of cells in the MIC assay was approximately 5×10^5 cfu/mL in media as follows: S. uberis; Todd Hewitt Broth (THB), S. aureus; Tryptic Soy Broth (TSB) and Cation Adjusted Muller Hinton Broth (CAMHB), and E. coli; Lysogeny Borth (LB) and CAMHB, before being dispensed into microtiter wells. As required additional sterile Zinc Sulphate (Heptahydrate) was supplemented into the media, so the final concentration was 50 μM. Test compounds were added to starting wells and two-fold serial dilutions were undertaken to generate a range of inhibitor concentrations at a final volume of 200 μl. Media and test compound-free (untreated) controls were included in each microtiter plate in triplicate. After 24 h incubation at 37° C. and 200 rpm, the OD600 of wells were read using a Varioskan Flash plate reader (ThermoFisher Scientific, New Zealand). The MIC was reported as the lowest concentration of the test compound for which no growth occurred, as determined by OD600 readings. The minimum bactericidal concentration (MBC) was determined using the Miles-Misra drop-plate method to measure the viability of cells in response to test compound challenge.
For orientation: Dilution methods test growth across graded concentrations, often in twofold steps.

The test system of assay [2] is S. aureus ATCC 6538. Nature of the assay: MIC by broth microdilution, S. aureus. The settings on record: Staphylococcus aureus. As to the method:
as §1

For assay [3], the system named is E. coli ATCC 10596. Nature of the assay: MIC by broth microdilution, E. coli. The settings on record: Escherichia coli. The procedure: as §1
Where [4] appears, read: ATCC19436, No Zinc, read-out: S. uberis ATCC 19436 MIC.
Setting [5] is: ATCC19436, Zinc (50 μM), read-out: S. uberis ATCC 19436 MIC.
Where [6] appears, read: ATCC6538, No Zinc, read-out: S. aureus ATCC 6538 MIC.
The mark [7] stands for this setting: ATCC6538, Zinc (50 μM), read-out: S. aureus ATCC 6538 MIC.
[8] abbreviates: ATCC 10536 / ATCC 10596, No Zinc, read-out: E. coli ATCC 10536 MIC.
Setting [9] is: ATCC 10536 / ATCC 10596, Zinc (50 μM), read-out: E. coli ATCC 10536 MIC.

≈ marks a conversion by molar mass, not a printed value. Where a name gives a salt, the structure may show the parent alone. Read-outs that look alike come from different tables or passages of the source.

Consider 17 compounds from patent US11691949B2, “Quinoline sulfonamide compounds and their use as antibacterial agents” (OTAGO INNOVATION LIMITED, priority 2017, dated 2023).

With `CC(C)(C)OC(=O)CNCc1ccc2cccc(NS(=O)(=O)c3ccc(C(F)(F)F)cc3)c2n1` [ZDR041, N-(2-(((tert-Butoxycarbonylmethyl)amino)methyl)quinolin-8-yl)-4-(trifluoromethyl)benzenesulfonamide], the MIC in assay [1] (setting [4]) was more than 256 µg/mL; in assay [1] (setting [5]) it was 0.5 µg/mL (≈ 1.01 µM); in assay [2] (setting [6]) it was 64 µg/mL (≈ 129 µM); in assay [2] (setting [7]), more than 256 µg/mL; in assay [3] (setting [8]), more than 256 µg/mL; in assay [3] (setting [9]) it was more than 256 µg/mL.
Consider `O=C(O)CNCc1ccc2cccc(NS(=O)(=O)c3ccc(C(F)(F)F)cc3)c2n1` [ZDR043, N-(2-(((Carboxymethyl)amino)methyl)quinolin-8-yl)-4-(trifluoromethyl)benzenesulfonamide trifluoroacetate], for which the MIC was more than 256 µg/mL in assay [1] (ATCC19436, read-out: S. uberis ATCC 19436 MIC, No Zinc); more than 256 µg/mL in assay [1] (ATCC19436, read-out: S. uberis ATCC 19436 MIC, Zinc (50 μM)); more than 256 µg/mL in assay [2] (ATCC6538, read-out: S. aureus ATCC 6538 MIC, No Zinc); more than 256 µg/mL in assay [2] (ATCC6538, read-out: S. aureus ATCC 6538 MIC, Zinc (50 μM)); more than 256 µg/mL in assay [3] (ATCC 10536 / ATCC 10596, read-out: E. coli ATCC 10536 MIC, No Zinc); more than 256 µg/mL in assay [3] (ATCC 10536 / ATCC 10596, read-out: E. coli ATCC 10536 MIC, Zinc (50 μM)).
Take `O=C(N/N=C/c1ccc2cccc(NS(=O)(=O)c3ccc(C(F)(F)F)cc3)c2n1)c1ccccc1` [ZDR045, (E)-N-(2-((2-Benzoylhydrazono)methyl)quinolin-8-yl)-4-(trifluoromethyl)benzenesulfonamide]: the MIC in assay [1] (setting [4]) is more than 256 µg/mL; in assay [1] (setting [5]) it was 0.125 µg/mL (≈ 0.251 µM); in assay [2] (setting [6]), more than 256 µg/mL; in assay [2] (setting [7]), more than 256 µg/mL; in assay [3] (setting [8]), more than 256 µg/mL; in assay [3] (setting [9]), more than 256 µg/mL.
On to `NC(=S)N/N=C/c1ccc2cccc(NS(=O)(=O)c3ccc(C(F)(F)F)cc3)c2n1` [ZDR046, (E)-2-((8-((4-(Trifluoromethyl)phenyl)sulfonamido)quinolin-2-yl)methylene)hydrazine-1-carbothioamide], for which the MIC is 4 µg/mL (≈ 8.82 µM) in assay [1] (setting [4]); 1 µg/mL (≈ 2.21 µM) in assay [1] (setting [5]); 4 µg/mL (≈ 8.82 µM) in assay [2] (setting [6]); 4 µg/mL (≈ 8.82 µM) in assay [2] (setting [7]); more than 256 µg/mL in assay [3] (setting [8]); more than 256 µg/mL in assay [3] (setting [9]).
Take `CN(C)Cc1ccc2cccc(NS(=O)(=O)c3ccccc3)c2n1` [ZDR061, N-(2-((Dimethylamino)methyl)quinolin-8-yl)benzenesulfonamide]: the MIC in assay [1] (setting [4]) was more than 256 µg/mL; in assay [1] (setting [5]), 0.25 µg/mL (≈ 0.732 µM); in assay [2] (setting [6]), more than 256 µg/mL; in assay [2] (setting [7]), 256 µg/mL (≈ 750 µM); in assay [3] (setting [8]) it was more than 256 µg/mL; in assay [3] (setting [9]), more than 256 µg/mL.
As for `Cc1ccc(S(=O)(=O)Nc2cccc3ccc(CN(C)C)nc23)cc1` [ZDR062, N-(2-((Dimethylamino)methyl)quinolin-8-yl)-4-methylbenzenesulfonamide], the MIC in assay [1] (setting [4]) is 256 µg/mL (≈ 720 µM); in assay [1] (setting [5]) it was 0.25 µg/mL (≈ 0.703 µM); in assay [2] (setting [6]) it was 256 µg/mL (≈ 720 µM); in assay [2] (setting [7]), more than 256 µg/mL; in assay [3] (setting [8]), more than 256 µg/mL; in assay [3] (setting [9]), more than 256 µg/mL.
For `COc1ccc(S(=O)(=O)Nc2cccc3ccc(CN(C)C)nc23)cc1` [ZDR063, N-(2-((Dimethylamino)methyl)quinolin-8-yl)-4-methoxybenzenesulfonamide], the MIC was more than 256 µg/mL in assay [1] (setting [4]); 0.25 µg/mL (≈ 0.673 µM) in assay [1] (setting [5]); more than 256 µg/mL in assay [2] (setting [6]); more than 256 µg/mL in assay [2] (setting [7]); more than 256 µg/mL in assay [3] (setting [8]); more than 256 µg/mL in assay [3] (setting [9]).
Turning to `CN(C)Cc1ccc2cccc(NS(=O)(=O)c3ccc(Cl)cc3)c2n1` [ZDR064, 4-Chloro-N-(2-((dimethylamino)methyl)quinolin-8-yl)benzenesulfonamide], the MIC in assay [1] (setting [4]) is more than 256 µg/mL; in assay [1] (setting [5]) it was 0.0625 µg/mL (≈ 0.166 µM); in assay [2] (setting [6]), 128 µg/mL (≈ 341 µM); in assay [2] (setting [7]) it was 256 µg/mL (≈ 681 µM); in assay [3] (setting [8]) it was more than 256 µg/mL; in assay [3] (setting [9]), more than 256 µg/mL.
Regarding `CN(C)Cc1ccc2cccc(NS(=O)(=O)c3ccc(F)cc3)c2n1` [ZDR065, N-(2-((Dimethylamino)methyl)quinolin-8-yl)-4-fluorobenzenesulfonamide], the MIC was more than 256 µg/mL in assay [1] (setting [4]); 0.125 µg/mL (≈ 0.348 µM) in assay [1] (setting [5]); 256 µg/mL (≈ 712 µM) in assay [2] (setting [6]); 256 µg/mL (≈ 712 µM) in assay [2] (setting [7]); more than 256 µg/mL in assay [3] (setting [8]); more than 256 µg/mL in assay [3] (setting [9]).
As to `CN(C)Cc1ccc2cccc(NS(=O)(=O)c3ccc(OC(F)(F)F)cc3)c2n1` [ZDR066, N-(2-((Dimethylamino)methyl)quinolin-8-yl)-4-(trifluoromethoxy)benzenesulfonamide], the MIC was 128 µg/mL (≈ 301 µM) in assay [1] (setting [4]); 0.0625 µg/mL (≈ 0.147 µM) in assay [1] (setting [5]); 256 µg/mL (≈ 602 µM) in assay [2] (setting [6]); more than 256 µg/mL in assay [2] (setting [7]); more than 256 µg/mL in assay [3] (setting [8]); more than 256 µg/mL in assay [3] (setting [9]).
For `CN(C)Cc1ccc2cccc(NS(=O)(=O)c3ccc([N+](=O)[O-])cc3)c2n1` [ZDR067, N-(2-((Dimethylamino)methyl)quinolin-8-yl)-4-nitrobenzenesulfonamide], the MIC is 128 µg/mL (≈ 331 µM) in assay [1] (setting [4]); 0.125 µg/mL (≈ 0.323 µM) in assay [1] (setting [5]); 128 µg/mL (≈ 331 µM) in assay [2] (setting [6]); 256 µg/mL (≈ 662 µM) in assay [2] (setting [7]); more than 256 µg/mL in assay [3] (setting [8]); more than 256 µg/mL in assay [3] (setting [9]).
On to `CN(C)Cc1ccc2cccc(NS(=O)(=O)c3ccc(C#N)cc3)c2n1` [ZDR068, 4-Cyano-N-(2-((dimethylamino)methyl)quinolin-8-yl)benzenesulfonamide], for which the MIC in assay [1] (setting [4]) was more than 256 µg/mL; in assay [1] (setting [5]) it was 1 µg/mL (≈ 2.73 µM); in assay [2] (setting [6]), more than 256 µg/mL; in assay [2] (setting [7]), more than 256 µg/mL; in assay [3] (setting [8]), more than 256 µg/mL; in assay [3] (setting [9]) it was more than 256 µg/mL.
Take `COC(=O)c1ccc(S(=O)(=O)Nc2cccc3ccc(CN(C)C)nc23)cc1` [ZDR069, Methyl 4-(N-(2-((dimethylamino)methyl)quinolin-8-yl)sulfamoyl)benzoate]: the MIC in assay [1] (setting [4]) was more than 256 µg/mL; in assay [1] (setting [5]), 0.25 µg/mL (≈ 0.626 µM); in assay [2] (setting [6]) it was 256 µg/mL (≈ 641 µM); in assay [2] (setting [7]) it was more than 256 µg/mL; in assay [3] (setting [8]), more than 256 µg/mL; in assay [3] (setting [9]), more than 256 µg/mL.
`CC(=O)c1ccc(S(=O)(=O)Nc2cccc3ccc(CN(C)C)nc23)cc1` [ZDR070, 4-Acetyl-N-(2-((dimethylamino)methyl)quinolin-8-yl)benzenesulfonamide]: the MIC in assay [1] (setting [4]) is more than 256 µg/mL; in assay [1] (setting [5]), 0.5 µg/mL (≈ 1.3 µM); in assay [2] (setting [6]), more than 256 µg/mL; in assay [2] (setting [7]), more than 256 µg/mL; in assay [3] (setting [8]) it was more than 256 µg/mL; in assay [3] (setting [9]) it was more than 256 µg/mL.
In the case of `CN(C)Cc1ccc2cccc(NS(=O)(=O)c3ccc(S(C)(=O)=O)cc3)c2n1` [ZDR071, N-(2-((Dimethylamino)methyl)quinolin-8-yl)-4-(methylsulfonyl)benzenesulfonamide], the MIC is more than 256 µg/mL in assay [1] (setting [4]); 4 µg/mL (≈ 9.53 µM) in assay [1] (setting [5]); more than 256 µg/mL in assay [2] (setting [6]); more than 256 µg/mL in assay [2] (setting [7]); more than 256 µg/mL in assay [3] (setting [8]); more than 256 µg/mL in assay [3] (setting [9]).
As to `CC(=O)Nc1ccc(S(=O)(=O)Nc2cccc3ccc(CN(C)C)nc23)cc1` [ZDR072, N-(4-(N-(2-((Dimethylamino)methyl)quinolin-8-yl)sulfamoyl)phenyl)acetamide], the MIC was 256 µg/mL (≈ 642 µM) in assay [1] (setting [4]); 32 µg/mL (≈ 80.3 µM) in assay [1] (setting [5]); more than 256 µg/mL in assay [2] (setting [6]); more than 256 µg/mL in assay [2] (setting [7]); more than 256 µg/mL in assay [3] (setting [8]); more than 256 µg/mL in assay [3] (setting [9]).
Consider `CN(C)Cc1ccc2cccc(NS(=O)(=O)c3ccc(C(N)=O)cc3)c2n1` [ZDR073, 4-(N-(2-((Dimethylamino)methyl)quinolin-8-yl)sulfamoyl)benzamide], for which the MIC in assay [1] (setting [4]) was more than 256 µg/mL; in assay [1] (setting [5]) it was 8 µg/mL (≈ 20.8 µM); in assay [2] (setting [6]), more than 256 µg/mL; in assay [2] (setting [7]), more than 256 µg/mL; in assay [3] (setting [8]), more than 256 µg/mL; in assay [3] (setting [9]), more than 256 µg/mL.

What is called MIC is the lowest concentration that inhibits growth of the organism.
